Laboratory results taken from US11384120B2, “Peptide capable of binding to biomarker for inflammatory and metabolic diseases, and use thereof” (NIBEC CO., LTD., priority 2019, dated 2022).
Where two headings read alike, the source gives them in different places.

Tests used:
IL-6 = IL-6 expression by ELISA in palmitic acid-treated HepG2 cells; assay type: cell-based; conditions: HepG2, peptide 200 μM 2 hours, then palmitic acid 200 μM 24 hours, medium, FIG. 4
Method: HepG2 cells were plated at a density of 70% on a 6-well plate. After 16 hours, the cells were starved using DMEM medium containing 0.5% FBS for 2 hours. The cells were treated with a medium containing each of the peptides of SEQ ID NOS: 1 to 6 at a concentration of 200 μM for 2 hours, and were further treated with palmitic acid at a concentration of 200 μM to induce an inflammatory response for 24 hours. Each medium was collected, and the level of expression of IL-6, an inflammatory cytokine, was detected with an ELISA kit (R&D, Minneapolis, Minn., USA).

RAW 264.7 cells [1] = system: RAW 264.7 cells
Method: (§1) RAW 264.7 cells were seeded at a density of 2×10^4/well on a 6-well plate. After 24 hours, replacement was conducted with DMEM medium containing 0.5% FBS. The cells were treated with 50 μM of each of fluorescence (rhodamine)-labeled peptides of SEQ ID NOS: 1, 5 and 6. After 20 minutes, the cells were fixed and observed with a confocal microscope.

RAW 264.7 cells [2] = experiment: cell permeability of rhodamine-labeled peptides by confocal microscopy; conditions: RAW 264.7, rhodamine-labeled peptide 50 μM, 20 minutes, FIG. 3
Method: as §1

| Sequence | expression level of IL-6 (IL-6) | cell permeability (fluorescence in the cells) (RAW 264.7 cells [1]) | cell permeability (fluorescence in the cells) (RAW 264.7 cells [2]) |
| --- | --- | --- | --- |
| AESPLTNRGWNPGKCSTRGRKCCRRKK [SEQ ID NO: 6] | lowest IL-6 expression level | excellent cell permeability |  |
| GKCSTRGRKCCRRKK [SEQ ID NO: 5] |  |  | excellent cell permeability |
